What was measured:
AMPK (A1/B2/G3) = target: T1, AMPK (A1/B2/G3) (Homo sapiens, UniProt Q13131); assay: HotSpot kinase assay; assay type: biochemical; conditions: 10µM; read-out: % Enzyme Activity (relative to DMSO controls)
T1 construct: purchased Reaction Biology Corporation
Experimental: (§1) Kinase activity were performed by Reaction Biology Corporation using the “HotSpot” assay platform modified from the published procedure.

AMPK (A2/B1/G3) = target: T2, AMPK (A2/B1/G3) (Homo sapiens, UniProt P54646); assay: HotSpot kinase assay; assay type: biochemical; conditions: 10µM; read-out: % Enzyme Activity (relative to DMSO controls)
T2 construct: purchased Reaction Biology Corporation
Experimental: as §1

AMPK(A1/B1/G1) = target: T3, AMPK(A1/B1/G1) (Homo sapiens, UniProt Q13131); assay: HotSpot kinase assay; assay type: biochemical; conditions: 10µM; read-out: % Enzyme Activity (relative to DMSO controls)
T3 construct: purchased Reaction Biology Corporation
Experimental: as §1

AMPK(A1/B1/G2) = target: T4, AMPK(A1/B1/G2) (Homo sapiens, UniProt Q13131); assay: HotSpot kinase assay; assay type: biochemical; conditions: 10µM; read-out: % Enzyme Activity (relative to DMSO controls)
T4 construct: purchased Reaction Biology Corporation
Experimental: as §1

AMPK(A1/B2/G1) = target: T5, AMPK(A1/B2/G1) (Homo sapiens, UniProt Q13131); assay: HotSpot kinase assay; assay type: biochemical; conditions: 10µM; read-out: % Enzyme Activity (relative to DMSO controls)
T5 construct: purchased Reaction Biology Corporation
Experimental: as §1

AMPK(A2/B1/G1) = target: T6, AMPK(A2/B1/G1) (Homo sapiens, UniProt P54646); assay: HotSpot kinase assay; assay type: biochemical; conditions: 10µM; read-out: % Enzyme Activity (relative to DMSO controls)
T6 construct: purchased Reaction Biology Corporation
Experimental: as §1

AMPK(A2/B2/G1) = target: T7, AMPK(A2/B2/G1) (Homo sapiens, UniProt P54646); assay: HotSpot kinase assay; assay type: biochemical; conditions: 10µM; read-out: % Enzyme Activity (relative to DMSO controls)
T7 construct: purchased Reaction Biology Corporation
Experimental: as §1

AMPK(A2/B2/G2) = target: T8, AMPK(A2/B2/G2) (Homo sapiens, UniProt P54646); assay: HotSpot kinase assay; assay type: biochemical; conditions: 10µM; read-out: % Enzyme Activity (relative to DMSO controls)
T8 construct: purchased Reaction Biology Corporation
Experimental: as §1

AMPK(A2/B2/G3) = target: T9, AMPK(A2/B2/G3) (Homo sapiens, UniProt P54646); assay: HotSpot kinase assay; assay type: biochemical; conditions: 10µM; read-out: % Enzyme Activity (relative to DMSO controls)
T9 construct: purchased Reaction Biology Corporation
Experimental: as §1

ARAF = target: T10, ARAF (Homo sapiens, UniProt P10398); assay: HotSpot kinase assay; assay type: biochemical; conditions: 10µM; read-out: % Enzyme Activity (relative to DMSO controls)
T10 construct: purchased Reaction Biology Corporation
Experimental: as §1

CK2a = target: T11, CK2a (Homo sapiens, UniProt P68400); assay: HotSpot kinase assay; assay type: biochemical; conditions: 10µM; read-out: % Enzyme Activity (relative to DMSO controls)
T11 construct: purchased Reaction Biology Corporation
Experimental: as §1

COT1/MAP3K8 = target: T12, COT1/MAP3K8 (Homo sapiens, UniProt P41279); assay: HotSpot kinase assay; assay type: biochemical; conditions: 10µM; read-out: % Enzyme Activity (relative to DMSO controls)
T12 construct: purchased Reaction Biology Corporation
T12 sequence (P41279 whole entry): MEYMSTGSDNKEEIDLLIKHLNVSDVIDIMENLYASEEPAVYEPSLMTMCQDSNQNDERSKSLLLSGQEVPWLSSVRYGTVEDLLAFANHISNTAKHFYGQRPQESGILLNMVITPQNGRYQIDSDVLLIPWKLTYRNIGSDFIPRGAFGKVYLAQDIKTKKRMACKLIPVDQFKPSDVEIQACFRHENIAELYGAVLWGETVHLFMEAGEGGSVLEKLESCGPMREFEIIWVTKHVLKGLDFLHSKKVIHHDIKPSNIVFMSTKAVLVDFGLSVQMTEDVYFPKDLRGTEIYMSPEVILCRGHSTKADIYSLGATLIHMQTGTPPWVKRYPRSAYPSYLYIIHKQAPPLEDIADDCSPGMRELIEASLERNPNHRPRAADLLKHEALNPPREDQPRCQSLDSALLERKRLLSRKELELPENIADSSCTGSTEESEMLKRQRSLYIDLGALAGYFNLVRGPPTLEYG
Experimental: as §1

DYRK4 = target: T13, DYRK4 (Homo sapiens, UniProt Q9NR20); assay: HotSpot kinase assay; assay type: biochemical; conditions: 10µM; read-out: % Enzyme Activity (relative to DMSO controls)
T13 construct: purchased Reaction Biology Corporation
Experimental: as §1

EIF2AK1 = target: T14, EIF2AK1 (Homo sapiens, UniProt Q9BQI3); assay: HotSpot kinase assay; assay type: biochemical; conditions: 10µM; read-out: % Enzyme Activity (relative to DMSO controls)
T14 construct: purchased Reaction Biology Corporation
Experimental: as §1

ERK1 = target: T15, ERK1 (Homo sapiens, UniProt P27361); assay: HotSpot kinase assay; assay type: biochemical; conditions: 10µM; read-out: % Enzyme Activity (relative to DMSO controls)
T15 construct: purchased Reaction Biology Corporation
T15 sequence (P27361 whole entry): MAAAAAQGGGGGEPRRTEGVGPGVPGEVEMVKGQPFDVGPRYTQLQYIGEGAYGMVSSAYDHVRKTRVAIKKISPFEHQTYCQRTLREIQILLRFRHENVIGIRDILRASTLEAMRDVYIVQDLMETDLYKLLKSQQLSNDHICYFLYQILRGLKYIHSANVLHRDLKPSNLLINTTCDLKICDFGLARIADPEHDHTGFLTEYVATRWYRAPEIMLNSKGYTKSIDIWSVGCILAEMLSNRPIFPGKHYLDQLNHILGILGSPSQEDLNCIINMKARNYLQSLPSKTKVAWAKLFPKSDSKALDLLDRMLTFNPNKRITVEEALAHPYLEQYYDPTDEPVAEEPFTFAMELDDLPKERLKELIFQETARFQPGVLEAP
Experimental: as §1

HIPK1 = target: T16, HIPK1 (Homo sapiens, UniProt Q86Z02); assay: HotSpot kinase assay; assay type: biochemical; conditions: 10µM; read-out: % Enzyme Activity (relative to DMSO controls)
T16 construct: purchased Reaction Biology Corporation
Experimental: as §1

HPK1/MAP4K1 = target: T17, HPK1/MAP4K1 (Homo sapiens, UniProt Q92918); assay: HotSpot kinase assay; assay type: biochemical; conditions: 10µM; read-out: % Enzyme Activity (relative to DMSO controls)
T17 construct: purchased Reaction Biology Corporation
Experimental: as §1

LOK/STK10 = target: T18, LOK/STK10 (Homo sapiens, UniProt O94804); assay: HotSpot kinase assay; assay type: biochemical; conditions: 10µM; read-out: % Enzyme Activity (relative to DMSO controls)
T18 construct: purchased Reaction Biology Corporation
T18 sequence (O94804 whole entry): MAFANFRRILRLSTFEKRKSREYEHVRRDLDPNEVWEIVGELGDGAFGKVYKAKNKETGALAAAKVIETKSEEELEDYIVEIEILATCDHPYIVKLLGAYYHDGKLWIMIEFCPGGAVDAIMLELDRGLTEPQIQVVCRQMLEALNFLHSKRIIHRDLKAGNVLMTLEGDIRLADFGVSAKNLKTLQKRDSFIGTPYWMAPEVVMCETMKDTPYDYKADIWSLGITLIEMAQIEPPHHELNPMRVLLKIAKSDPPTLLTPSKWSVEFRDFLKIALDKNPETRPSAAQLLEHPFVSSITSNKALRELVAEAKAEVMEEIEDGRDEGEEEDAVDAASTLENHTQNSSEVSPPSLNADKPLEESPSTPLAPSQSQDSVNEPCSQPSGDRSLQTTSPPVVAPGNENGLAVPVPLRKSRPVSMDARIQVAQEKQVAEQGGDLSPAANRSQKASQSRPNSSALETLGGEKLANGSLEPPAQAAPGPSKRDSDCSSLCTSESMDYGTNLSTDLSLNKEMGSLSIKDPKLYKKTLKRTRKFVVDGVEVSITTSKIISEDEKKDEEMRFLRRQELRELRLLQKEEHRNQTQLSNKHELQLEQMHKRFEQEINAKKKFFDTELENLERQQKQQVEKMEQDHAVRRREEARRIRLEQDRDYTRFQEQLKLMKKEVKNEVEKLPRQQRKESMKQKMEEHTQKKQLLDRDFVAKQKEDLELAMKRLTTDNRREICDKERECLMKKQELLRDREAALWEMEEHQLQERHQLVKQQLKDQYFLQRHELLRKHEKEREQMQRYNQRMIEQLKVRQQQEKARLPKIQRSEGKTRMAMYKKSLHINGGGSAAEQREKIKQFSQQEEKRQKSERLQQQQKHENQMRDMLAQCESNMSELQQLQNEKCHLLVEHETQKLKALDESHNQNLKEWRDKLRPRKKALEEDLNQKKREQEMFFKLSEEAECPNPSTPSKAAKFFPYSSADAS
Experimental: as §1

NEK3 = target: T19, NEK3 (Homo sapiens, UniProt P51956); assay: HotSpot kinase assay; assay type: biochemical; conditions: 10µM; read-out: % Enzyme Activity (relative to DMSO controls)
T19 construct: purchased Reaction Biology Corporation
T19 sequence (P51956 whole entry): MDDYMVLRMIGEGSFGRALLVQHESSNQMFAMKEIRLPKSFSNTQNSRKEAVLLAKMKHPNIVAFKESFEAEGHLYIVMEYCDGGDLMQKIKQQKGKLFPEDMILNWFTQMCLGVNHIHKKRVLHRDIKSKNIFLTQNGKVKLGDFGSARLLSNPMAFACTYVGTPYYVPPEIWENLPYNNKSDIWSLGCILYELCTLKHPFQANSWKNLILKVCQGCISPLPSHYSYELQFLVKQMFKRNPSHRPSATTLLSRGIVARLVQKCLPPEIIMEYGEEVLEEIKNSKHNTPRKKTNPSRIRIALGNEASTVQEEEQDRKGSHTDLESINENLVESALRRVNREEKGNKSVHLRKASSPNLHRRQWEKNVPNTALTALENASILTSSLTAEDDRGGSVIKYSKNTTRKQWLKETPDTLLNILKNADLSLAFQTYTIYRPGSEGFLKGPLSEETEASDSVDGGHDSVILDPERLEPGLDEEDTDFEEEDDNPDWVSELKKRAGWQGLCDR
Experimental: as §1

NEK6 = target: T20, NEK6 (Homo sapiens, UniProt Q9HC98); assay: HotSpot kinase assay; assay type: biochemical; conditions: 10µM; read-out: % Enzyme Activity (relative to DMSO controls)
T20 construct: purchased Reaction Biology Corporation
T20 sequence (Q9HC98 whole entry): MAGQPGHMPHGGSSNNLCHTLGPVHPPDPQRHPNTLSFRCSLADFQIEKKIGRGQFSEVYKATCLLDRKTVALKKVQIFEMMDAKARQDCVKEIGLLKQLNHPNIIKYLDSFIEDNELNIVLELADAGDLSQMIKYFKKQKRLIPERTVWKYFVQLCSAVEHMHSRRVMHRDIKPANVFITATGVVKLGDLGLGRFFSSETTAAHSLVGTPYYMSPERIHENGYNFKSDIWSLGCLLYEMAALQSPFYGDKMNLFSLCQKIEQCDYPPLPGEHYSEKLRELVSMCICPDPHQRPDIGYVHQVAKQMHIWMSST
Experimental: as §1

NEK7 = target: T21, NEK7 (Homo sapiens, UniProt Q8TDX7); assay: HotSpot kinase assay; assay type: biochemical; conditions: 10µM; read-out: % Enzyme Activity (relative to DMSO controls)
T21 construct: purchased Reaction Biology Corporation
Experimental: as §1

PDK1/PDHK1 = target: T22, PDK1/PDHK1 (Homo sapiens, UniProt Q15118); assay: HotSpot kinase assay; assay type: biochemical; conditions: 10µM; read-out: % Enzyme Activity (relative to DMSO controls)
T22 construct: purchased Reaction Biology Corporation
Experimental: as §1

PDK2/PDHK2 = target: T23, PDK2/PDHK2 (Homo sapiens, UniProt Q15119); assay: HotSpot kinase assay; assay type: biochemical; conditions: 10µM; read-out: % Enzyme Activity (relative to DMSO controls)
T23 construct: purchased Reaction Biology Corporation
Experimental: as §1

PDK3/PDHK3 = target: T24, PDK3/PDHK3 (Homo sapiens, UniProt Q15120); assay: HotSpot kinase assay; assay type: biochemical; conditions: 10µM; read-out: % Enzyme Activity (relative to DMSO controls)
T24 construct: purchased Reaction Biology Corporation
Experimental: as §1

PDK4/PDHK4 = target: T25, PDK4/PDHK4 (Homo sapiens, UniProt Q16654); assay: HotSpot kinase assay; assay type: biochemical; conditions: 10µM; read-out: % Enzyme Activity (relative to DMSO controls)
T25 construct: purchased Reaction Biology Corporation
T25 sequence (Q16654 whole entry): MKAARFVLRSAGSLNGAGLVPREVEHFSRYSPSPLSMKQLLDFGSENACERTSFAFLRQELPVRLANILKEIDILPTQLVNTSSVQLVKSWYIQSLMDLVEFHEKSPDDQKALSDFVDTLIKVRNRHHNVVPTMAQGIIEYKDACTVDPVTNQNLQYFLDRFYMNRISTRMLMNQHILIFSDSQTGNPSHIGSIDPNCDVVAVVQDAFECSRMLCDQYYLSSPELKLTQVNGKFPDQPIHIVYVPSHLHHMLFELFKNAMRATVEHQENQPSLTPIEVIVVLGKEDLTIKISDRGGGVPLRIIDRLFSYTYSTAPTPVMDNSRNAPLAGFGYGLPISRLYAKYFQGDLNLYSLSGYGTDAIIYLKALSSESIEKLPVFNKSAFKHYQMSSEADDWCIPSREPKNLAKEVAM
Experimental: as §1

TGFBR2 = target: T26, TGFBR2 (Homo sapiens, UniProt P37173); assay: HotSpot kinase assay; assay type: biochemical; conditions: 10µM; read-out: % Enzyme Activity (relative to DMSO controls)
T26 construct: purchased Reaction Biology Corporation
T26 sequence (P37173 23-567): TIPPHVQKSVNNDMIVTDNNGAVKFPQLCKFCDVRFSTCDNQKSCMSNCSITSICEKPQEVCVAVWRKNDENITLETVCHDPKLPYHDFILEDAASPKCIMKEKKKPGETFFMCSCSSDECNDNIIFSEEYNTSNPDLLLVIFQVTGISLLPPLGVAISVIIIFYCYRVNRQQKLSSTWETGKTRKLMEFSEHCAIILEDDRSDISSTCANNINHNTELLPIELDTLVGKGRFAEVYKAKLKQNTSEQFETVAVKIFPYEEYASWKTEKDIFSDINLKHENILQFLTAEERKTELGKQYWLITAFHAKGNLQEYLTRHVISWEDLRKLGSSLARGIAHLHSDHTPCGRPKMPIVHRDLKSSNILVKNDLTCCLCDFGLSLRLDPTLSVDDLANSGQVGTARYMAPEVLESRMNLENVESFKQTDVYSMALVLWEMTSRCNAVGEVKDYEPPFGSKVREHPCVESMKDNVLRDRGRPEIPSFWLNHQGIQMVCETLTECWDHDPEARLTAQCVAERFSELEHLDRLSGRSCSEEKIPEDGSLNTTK
Experimental: as §1

TRPM7/CHAK1 = target: T27, TRPM7/CHAK1 (Homo sapiens, UniProt Q96QT4); assay: HotSpot kinase assay; assay type: biochemical; conditions: 10µM; read-out: % Enzyme Activity (relative to DMSO controls)
T27 construct: purchased Reaction Biology Corporation
Experimental: as §1

TTBK1 = target: T28, TTBK1 (Homo sapiens, UniProt Q5TCY1); assay: HotSpot kinase assay; assay type: biochemical; conditions: 10µM; read-out: % Enzyme Activity (relative to DMSO controls)
T28 construct: purchased Reaction Biology Corporation
Experimental: as §1

TTBK2 = target: T29, TTBK2 (Homo sapiens, UniProt Q6IQ55); assay: HotSpot kinase assay; assay type: biochemical; conditions: 10µM; read-out: % Enzyme Activity (relative to DMSO controls)
T29 construct: purchased Reaction Biology Corporation
Experimental: as §1

VRK1 = target: T30, VRK1 (Homo sapiens, UniProt Q99986); assay: HotSpot kinase assay; assay type: biochemical; conditions: 10µM; read-out: % Enzyme Activity (relative to DMSO controls)
T30 construct: purchased Reaction Biology Corporation
T30 sequence (Q99986 whole entry): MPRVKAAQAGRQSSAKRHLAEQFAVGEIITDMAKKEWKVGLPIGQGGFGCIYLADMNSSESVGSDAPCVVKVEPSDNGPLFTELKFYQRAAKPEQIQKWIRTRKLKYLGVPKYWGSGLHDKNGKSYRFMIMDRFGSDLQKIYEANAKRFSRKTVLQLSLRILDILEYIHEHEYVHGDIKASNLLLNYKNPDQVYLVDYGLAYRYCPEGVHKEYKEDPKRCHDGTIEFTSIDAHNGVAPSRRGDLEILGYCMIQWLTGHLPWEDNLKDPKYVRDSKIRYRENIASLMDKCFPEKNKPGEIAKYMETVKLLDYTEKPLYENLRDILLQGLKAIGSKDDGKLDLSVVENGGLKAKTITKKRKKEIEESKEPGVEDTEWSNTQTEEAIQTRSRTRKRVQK
Experimental: as §1

VRK2 = target: T31, VRK2 (Homo sapiens, UniProt Q86Y07); assay: HotSpot kinase assay; assay type: biochemical; conditions: 10µM; read-out: % Enzyme Activity (relative to DMSO controls)
T31 construct: purchased Reaction Biology Corporation
Experimental: as §1

WEE1 = target: T32, WEE1 (Homo sapiens, UniProt P30291); assay: HotSpot kinase assay; assay type: biochemical; conditions: read-out: % Enzyme Activity (relative to DMSO controls)
T32 construct: purchased Reaction Biology Corporation
Experimental: as §1

WNK3 = target: T33, WNK3 (Homo sapiens, UniProt Q9BYP7); assay: HotSpot kinase assay; assay type: biochemical; conditions: 10µM; read-out: % Enzyme Activity (relative to DMSO controls)
T33 construct: purchased Reaction Biology Corporation
Experimental: as §1

ZAK/MLTK = target: T34, ZAK/MLTK (Homo sapiens, UniProt Q9NYL2); assay: HotSpot kinase assay; assay type: biochemical; conditions: 10µM; read-out: % Enzyme Activity (relative to DMSO controls)
T34 construct: purchased Reaction Biology Corporation
Experimental: as §1

BLK = target: T35, BLK (Homo sapiens, UniProt P51451); assay: HotSpot kinase assay; assay type: biochemical; conditions: read-out: % Enzyme Activity (relative to DMSO controls)
T35 construct: purchased Reaction Biology Corporation

CAMK2b = target: T36, CAMK2b (Homo sapiens, UniProt Q13554); assay: HotSpot kinase assay; assay type: biochemical; conditions: read-out: % Enzyme Activity (relative to DMSO controls)
T36 construct: purchased Reaction Biology Corporation

DYRK3 = target: T37, DYRK3 (Homo sapiens, UniProt O43781); assay: HotSpot kinase assay; assay type: biochemical; conditions: read-out: % Enzyme Activity (relative to DMSO controls)
T37 construct: purchased Reaction Biology Corporation
T37 sequence (O43781 whole entry): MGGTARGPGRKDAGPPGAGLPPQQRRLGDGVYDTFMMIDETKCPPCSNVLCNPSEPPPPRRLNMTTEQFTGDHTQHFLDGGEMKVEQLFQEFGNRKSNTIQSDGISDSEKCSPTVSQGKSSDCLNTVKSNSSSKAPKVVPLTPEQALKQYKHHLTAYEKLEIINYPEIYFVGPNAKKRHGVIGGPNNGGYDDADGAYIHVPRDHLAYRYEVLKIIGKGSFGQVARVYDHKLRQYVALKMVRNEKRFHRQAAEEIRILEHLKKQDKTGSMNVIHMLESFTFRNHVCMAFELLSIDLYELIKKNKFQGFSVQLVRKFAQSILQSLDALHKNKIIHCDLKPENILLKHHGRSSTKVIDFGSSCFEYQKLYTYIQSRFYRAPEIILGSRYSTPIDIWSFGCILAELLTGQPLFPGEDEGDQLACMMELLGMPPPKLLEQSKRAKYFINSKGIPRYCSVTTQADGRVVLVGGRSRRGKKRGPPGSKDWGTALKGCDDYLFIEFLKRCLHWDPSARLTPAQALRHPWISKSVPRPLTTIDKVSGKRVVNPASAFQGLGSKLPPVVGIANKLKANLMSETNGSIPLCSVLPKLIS

EPHB1 = target: T38, EPHB1 (Homo sapiens, UniProt P54762); assay: HotSpot kinase assay; assay type: biochemical; conditions: read-out: % Enzyme Activity (relative to DMSO controls)
T38 construct: purchased Reaction Biology Corporation

GRK5 = target: T39, GRK5 (Homo sapiens, UniProt P34947); assay: HotSpot kinase assay; assay type: biochemical; conditions: read-out: % Enzyme Activity (relative to DMSO controls)
T39 construct: purchased Reaction Biology Corporation

PIM1 = target: T40, PIM1 (Homo sapiens, UniProt P11309); assay: HotSpot kinase assay; assay type: biochemical; conditions: read-out: % Enzyme Activity (relative to DMSO controls)
T40 construct: purchased Reaction Biology Corporation
T40 sequence (P11309 whole entry): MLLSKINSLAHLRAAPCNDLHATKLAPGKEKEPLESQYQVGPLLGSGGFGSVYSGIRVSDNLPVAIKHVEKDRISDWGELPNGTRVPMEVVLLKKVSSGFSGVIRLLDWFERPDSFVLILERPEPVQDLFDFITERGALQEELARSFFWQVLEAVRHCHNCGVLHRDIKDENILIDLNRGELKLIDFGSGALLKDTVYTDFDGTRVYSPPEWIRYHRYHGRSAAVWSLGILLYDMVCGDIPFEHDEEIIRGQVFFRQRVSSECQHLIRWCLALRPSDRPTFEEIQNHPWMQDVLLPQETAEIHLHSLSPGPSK

TIE2/TEK = target: T41, TIE2/TEK (Homo sapiens, UniProt Q02763); assay: HotSpot kinase assay; assay type: biochemical; conditions: read-out: % Enzyme Activity (relative to DMSO controls)
T41 construct: purchased Reaction Biology Corporation

PLSCR1 = assay type: cell-based, monkey; conditions: 30 min; drugs 10 μM, immunoglobulins 10 μg/ml

Molecule `CO[C@@H]1[C@H](N(C)C(=O)CCC(=O)NCc2cn(CCCS(=O)(=O)O)nn2)C[C@H]2O[C@]1(C)n1c3ccccc3c3c4c(c5c6ccccc6n2c5c31)C(=O)NC4` [CIMSS] has a remaining activity at 10 µM (AMPK (A1/B2/G3)) of 1.13%, a remaining activity at 10 µM (AMPK (A2/B1/G3)) of 0.67% and a remaining activity at 10 µM (AMPK(A1/B1/G1)) of 1.14%. The remaining activity at 10 µM (AMPK(A1/B1/G2)) was 1.46%, the remaining activity at 10 µM (AMPK(A1/B2/G1)) was 0.73% and the remaining activity at 10 µM (AMPK(A2/B1/G1)) was 0.76%. It also gave a remaining activity at 10 µM (AMPK(A2/B2/G1)) of 0.34%, a remaining activity at 10 µM (AMPK(A2/B2/G2)) of 0.73% and a remaining activity at 10 µM (AMPK(A2/B2/G3)) of 0.63%. The remaining activity at 10 µM (ARAF) was 154%, the remaining activity at 10 µM (CK2a) was 71.4% and the remaining activity at 10 µM (COT1/MAP3K8) was 110%. The remaining activity at 10 µM (DYRK4) was 92%, the remaining activity at 10 µM (EIF2AK1) was 82.5% and the remaining activity at 10 µM (ERK1) was 91.8%. For the same molecule, the remaining activity at 10 µM (HIPK1) was 36.4%, the remaining activity at 10 µM (HPK1/MAP4K1) was 2.66% and the remaining activity at 10 µM (LOK/STK10) was 2.86%. It also gave a remaining activity at 10 µM (NEK3) of 87.3%, a remaining activity at 10 µM (NEK6) of 89% and a remaining activity at 10 µM (NEK7) of 88.5%. The remaining activity at 10 µM (PDK1/PDHK1) was 97.2%, the remaining activity at 10 µM (PDK2/PDHK2) was 95.5% and the remaining activity at 10 µM (PDK3/PDHK3) was 96.4%. For the same molecule, the remaining activity at 10 µM (PDK4/PDHK4) was 93.2%, the remaining activity at 10 µM (TGFBR2) was 111% and the remaining activity at 10 µM (TRPM7/CHAK1) was 91.6%. It also gave a remaining activity at 10 µM (TTBK1) of 67.7%, a remaining activity at 10 µM (TTBK2) of 95.1% and a remaining activity at 10 µM (VRK1) of 81.6%. For the same molecule, the remaining activity at 10 µM (VRK2) was 81.8%, the remaining activity at 10 µM (WEE1) was 44.2% and the remaining activity at 10 µM (WNK3) was 66.4%. For the same molecule, the remaining activity at 10 µM (ZAK/MLTK) was 82.7%, the remaining activity at 10 µM (BLK) was 0.34% and the remaining activity at 10 µM (CAMK2b) was 3.03%. For the same molecule, the remaining activity at 10 µM (DYRK3) was 28.2%, the remaining activity at 10 µM (EPHB1) was 1.91% and the remaining activity at 10 µM (GRK5) was 7.35%. The remaining activity at 10 µM (PIM1) was 0.88%, the remaining activity at 10 µM (TIE2/TEK) was 7.56% and the “Phosphorylation of PLSCR1” value (PLSCR1) was “preserved”.
